According to US8815950B2, “Pharmaceutical compositions and method of using levodopa and carbidopa” (Janssen Biotech, Inc., priority 2003, dated 2014):
Values after ≈ are worked out from the molar mass of the structure shown. Read-outs that look alike come from different tables or passages of the source.

Tests used:
Type in all cases: physicochemical
[1] = Solubility of levodopa in citrate buffer at varying pH and buffer strength
Method: Solutions were made using Citric acid and tribasic Sodium Citrate dihydrate Initially a 1.0 M citric acid solution was made by weighing out 19.2 g Citric acid (FW 192.1) into a 100 mL volumetric flask and diluting with HPLC grade water. This was repeated with the Sodium Citrate (FW 294.1), by weighting out 29.4 g of sodium citrate in into a 100 mL volumetric flask and diluting to 100 mL with water. A series of 8 of 20 mL scintillation vials were then labeled and prepared as follows:
These pH adjustments were made with the sodium citrate (also 1.0 M) to keep a consistent molarity with the citrate. From these mother vials, 2 subsequent sets of solution were made for the molar concentrations 0.45 and 0.15 M. 0.45 M is for a 3:1 buffer and 0.15 M is for a 1:1 buffer. These solutions were also pH adjusted with molar equivalent solution to keep the pH value consistent throughout each dilution and after adding the levodopa.

[2] = Stability of levodopa and carbidopa solutions, HPLC potency test
Method: A formulation of: […] This powder mixture was dissolved in water at a concentration of 5.5 mg/ml of levodopa. This solution was filter through a 0.22 micrometer filter (with PVDF membrane) and then stored at temperatures of 4 degrees C., 25 degrees C. and 40 degrees C. […] This powder mixture was dissolved in water at concentration of 1.0 mg/ml of levodopa. This solution was filtered through a 0.22 micrometer filter (with PVDF membrane) and then stored at temperatures of 4 degrees C., 25 degrees C. and 40 degrees C. The sample solutions were submitted for HPLC potency test at each time point. The stability was monitored in percentage change compared to the initial potency.

[3] = Levodopa solubility in 3.5 mg/ml ascorbic acid solution; settings: aqueous buffer, thermodynamic from solid, stirring 24 hour at RT, read-out: concentration of levodopa in the filtration (maximum solubility)
Method: Levedopa solubility in ascorbic acid solution an ascorbic acid concentration of 3.5 mg/ml was tested. A sample of 3.5 mg/ml ascorbic acid was made by adding 70.0 mg of ascorbic acid into 20 ml of water. Then, 80.0 mg of levodopa powder was dissolved into the 3.5 mg/ml ascorbic sample by stirring for 24 hour at RT. The projected levodopa concentration was 4 mg/ml. The sample was filtered through a 0.22μ PVDF filter to remove the insoluble levodopa. The filtration was assayed by HPLC at 10× dilution with water. The HPLC data indicated the concentration of levodopa in the filtration was 2.0 mg/ml.

[4] = Levodopa/Ascorbic/Carbidopa/at 1/3/0.2 at 4 C., 1 Day
[5] = Levodopa/Ascorbic/Carbidopa/at 1/3/0.2 at 4 C., 2 Day
[6] = Levodopa/Ascorbic/Carbidopa/at 1/3/0.2 at 4 C., 7 Day
[7] = Levodopa/Ascorbic/Carbidopa/at 1/3/0.2 at 4 C., Initial
[8] = Levodopa/Ascorbic/Carbidopa/at 1/3/0.2 at 25 C., 1 Day
[9] = Levodopa/Ascorbic/Carbidopa/at 1/3/0.2 at 25 C., 2 Day
[10] = Levodopa/Ascorbic/Carbidopa/at 1/3/0.2 at 25 C., 7 Day
[11] = Levodopa/Ascorbic/Carbidopa/at 1/3/0.2 at 25 C., Initial
[12] = Levodopa/Ascorbic/Carbidopa/at 1/3/0.2 at 40 C., 1 Day
[13] = Levodopa/Ascorbic/Carbidopa/at 1/3/0.2 at 40 C., 2 Day
[14] = Levodopa/Ascorbic/Carbidopa/at 1/3/0.2 at 40 C., 7 Day
[15] = Levodopa/Ascorbic/Carbidopa/at 1/3/0.2 at 40 C., Initial
[16] = Levodopa/Citric/Carbidopa/Sucrose at 1/3/0.2/1 at 4 C., 1 Day
[17] = Levodopa/Citric/Carbidopa/Sucrose at 1/3/0.2/1 at 4 C., 2 Day
[18] = Levodopa/Citric/Carbidopa/Sucrose at 1/3/0.2/1 at 4 C., 3 Day
[19] = Levodopa/Citric/Carbidopa/Sucrose at 1/3/0.2/1 at 4 C., 7 Day
[20] = Levodopa/Citric/Carbidopa/Sucrose at 1/3/0.2/1 at 4 C., Initial
[21] = Levodopa/Citric/Carbidopa/Sucrose at 1/3/0.2/1 at 25 C., 1 Day
[22] = Levodopa/Citric/Carbidopa/Sucrose at 1/3/0.2/1 at 25 C., 2 Day
[23] = Levodopa/Citric/Carbidopa/Sucrose at 1/3/0.2/1 at 25 C., 3 Day
[24] = Levodopa/Citric/Carbidopa/Sucrose at 1/3/0.2/1 at 25 C., 7 Day
[25] = Levodopa/Citric/Carbidopa/Sucrose at 1/3/0.2/1 at 25 C., Initial
[26] = Levodopa/Citric/Carbidopa/Sucrose at 1/3/0.2/1 at 40 C., 1 Day
[27] = Levodopa/Citric/Carbidopa/Sucrose at 1/3/0.2/1 at 40 C., 2 Day
[28] = Levodopa/Citric/Carbidopa/Sucrose at 1/3/0.2/1 at 40 C., 3 Day
[29] = Levodopa/Citric/Carbidopa/Sucrose at 1/3/0.2/1 at 40 C., 7 Day
[30] = Levodopa/Citric/Carbidopa/Sucrose at 1/3/0.2/1 at 40 C., Initial

N[C@@H](Cc1ccc(O)c(O)c1)C(=O)O [Levodopa]
solubility ([1]; pH 1.5, aqueous buffer, Citrate buffer 0.15M pH1.5, read-out: Conc (levodopa solubility)): 7200 µg/mL (≈ 36.5 mM)
solubility ([1]; pH 1.5, aqueous buffer, Citrate buffer 0.45M pH1.5, read-out: Conc (levodopa solubility)): 11400 µg/mL (≈ 57.8 mM)
solubility ([1]; pH 1.5, aqueous buffer, Citrate buffer 1.0M pH 1.5, read-out: Conc (levodopa solubility)): 17900 µg/mL (≈ 90.9 mM)
solubility ([1]; pH 2.5, aqueous buffer, Citrate buffer 0.15M pH2.5, read-out: Conc (levodopa solubility)): 4870 µg/mL (≈ 24.7 mM)
solubility ([1]; pH 2.5, aqueous buffer, Citrate buffer 0.45M pH2.5, read-out: Conc (levodopa solubility)): 5820 µg/mL (≈ 29.5 mM)
solubility ([1]; pH 2.5, aqueous buffer, Citrate buffer 1.0M pH 2.5, read-out: Conc (levodopa solubility)): 7430 µg/mL (≈ 37.7 mM)
solubility ([1]; pH 3, aqueous buffer, Citrate buffer 0.15M pH3.0, read-out: Conc (levodopa solubility)): 4210 µg/mL (≈ 21.3 mM)
solubility ([1]; pH 3, aqueous buffer, Citrate buffer 0.45M pH3.0, read-out: Conc (levodopa solubility)): 4850 µg/mL (≈ 24.6 mM)
solubility ([1]; pH 3, aqueous buffer, Citrate buffer 1.0M pH 3.0, read-out: Conc (levodopa solubility)): 5930 µg/mL (≈ 30.1 mM)
solubility ([1]; pH 3.5, aqueous buffer, Citrate buffer 0.15M pH3.5, read-out: Conc (levodopa solubility)): 3900 µg/mL (≈ 19.8 mM)
solubility ([1]; pH 3.5, aqueous buffer, Citrate buffer 0.45M pH3.5, read-out: Conc (levodopa solubility)): 4510 µg/mL (≈ 22.9 mM)
solubility ([1]; pH 3.5, aqueous buffer, Citrate buffer 1.0M pH 3.5, read-out: Conc (levodopa solubility)): 5230 µg/mL (≈ 26.5 mM)
solubility ([1]; pH 4, aqueous buffer, Citrate buffer 0.15M pH4.0, read-out: Conc (levodopa solubility)): 3790 µg/mL (≈ 19.2 mM)
solubility ([1]; pH 4, aqueous buffer, Citrate buffer 0.45M pH4.0, read-out: Conc (levodopa solubility)): 4250 µg/mL (≈ 21.6 mM)
solubility ([1]; pH 4, aqueous buffer, Citrate buffer 1.0M pH 4.0, read-out: Conc (levodopa solubility)): 4650 µg/mL (≈ 23.6 mM)
solubility ([1]; pH 4.5, aqueous buffer, Citrate buffer 0.15M pH4.5, read-out: Conc (levodopa solubility)): 3880 µg/mL (≈ 19.7 mM)
solubility ([1]; pH 4.5, aqueous buffer, Citrate buffer 0.45M pH4.5, read-out: Conc (levodopa solubility)): 4250 µg/mL (≈ 21.6 mM)
solubility ([1]; pH 4.5, aqueous buffer, Citrate buffer 1.0M pH 4.5, read-out: Conc (levodopa solubility)): 4440 µg/mL (≈ 22.5 mM)
solubility ([1]; pH 5, aqueous buffer, Citrate buffer 0.15M pH5.0, read-out: Conc (levodopa solubility)): 3880 µg/mL (≈ 19.7 mM)
solubility ([1]; pH 5, aqueous buffer, Citrate buffer 0.45M pH5.0, read-out: Conc (levodopa solubility)): 4150 µg/mL (≈ 21 mM)
solubility ([1]; pH 5, aqueous buffer, Citrate buffer 1.0M pH 5.0, read-out: Conc (levodopa solubility)): 4170 µg/mL (≈ 21.1 mM)
solubility ([1]; pH 6, aqueous buffer, Citrate buffer 0.15M pH6.0, read-out: Conc (levodopa solubility)): 3950 µg/mL (≈ 20 mM)
solubility ([1]; pH 6, aqueous buffer, Citrate buffer 0.45M pH6.0, read-out: Conc (levodopa solubility)): 4160 µg/mL (≈ 21.1 mM)
solubility ([1]; pH 6, aqueous buffer, Citrate buffer 1.0M pH 6.0, read-out: Conc (levodopa solubility)): 3870 µg/mL (≈ 19.6 mM)
HPLC potency, percentage compared to the initial potency [2, 4]: 100%
HPLC potency, percentage compared to the initial potency [2, 5]: 100%
HPLC potency, percentage compared to the initial potency [2, 6]: 102%
HPLC potency, percentage compared to the initial potency [2, 7]: 100%
HPLC potency, percentage compared to the initial potency [2, 8]: 100%
HPLC potency, percentage compared to the initial potency [2, 9]: 100%
HPLC potency, percentage compared to the initial potency [2, 10]: 102%
HPLC potency, percentage compared to the initial potency [2, 11]: 100%
HPLC potency, percentage compared to the initial potency [2, 12]: 100%
HPLC potency, percentage compared to the initial potency [2, 13]: 101%
HPLC potency, percentage compared to the initial potency [2, 14]: 104%
HPLC potency, percentage compared to the initial potency [2, 15]: 100%
HPLC potency, percentage compared to the initial potency [2, 16]: 100%
HPLC potency, percentage compared to the initial potency [2, 17]: 100%
HPLC potency, percentage compared to the initial potency [2, 18]: 100%
HPLC potency, percentage compared to the initial potency [2, 19]: 100%
HPLC potency, percentage compared to the initial potency [2, 20]: 100%
HPLC potency, percentage compared to the initial potency [2, 21]: 100%
HPLC potency, percentage compared to the initial potency [2, 22]: 100%
HPLC potency, percentage compared to the initial potency [2, 23]: 100%
HPLC potency, percentage compared to the initial potency [2, 24]: 100%
HPLC potency, percentage compared to the initial potency [2, 25]: 100%
HPLC potency, percentage compared to the initial potency [2, 26]: 100%
HPLC potency, percentage compared to the initial potency [2, 27]: 100%
HPLC potency, percentage compared to the initial potency [2, 28]: 100%
HPLC potency, percentage compared to the initial potency [2, 29]: 100%
HPLC potency, percentage compared to the initial potency [2, 30]: 100%
solubility at 24 h [3]: 2000 µg/mL (≈ 10.1 mM)

C[C@@](Cc1ccc(O)c(O)c1)(NN)C(=O)O [Carbidopa]
HPLC potency, percentage compared to the initial potency [2, 4]: 101%
HPLC potency, percentage compared to the initial potency [2, 5]: 101%
HPLC potency, percentage compared to the initial potency [2, 6]: 101%
HPLC potency, percentage compared to the initial potency [2, 7]: 100%
HPLC potency, percentage compared to the initial potency [2, 8]: 99%
HPLC potency, percentage compared to the initial potency [2, 9]: 97%
HPLC potency, percentage compared to the initial potency [2, 10]: 87%
HPLC potency, percentage compared to the initial potency [2, 11]: 100%
HPLC potency, percentage compared to the initial potency [2, 12]: 94%
HPLC potency, percentage compared to the initial potency [2, 13]: 88%
HPLC potency, percentage compared to the initial potency [2, 14]: 88%
HPLC potency, percentage compared to the initial potency [2, 15]: 100%
HPLC potency, percentage compared to the initial potency [2, 16]: 100%
HPLC potency, percentage compared to the initial potency [2, 17]: 100%
HPLC potency, percentage compared to the initial potency [2, 18]: 101%
HPLC potency, percentage compared to the initial potency [2, 19]: 100%
HPLC potency, percentage compared to the initial potency [2, 20]: 100%
HPLC potency, percentage compared to the initial potency [2, 21]: 98%
HPLC potency, percentage compared to the initial potency [2, 22]: 96%
HPLC potency, percentage compared to the initial potency [2, 23]: 96%
HPLC potency, percentage compared to the initial potency [2, 24]: 91%
HPLC potency, percentage compared to the initial potency [2, 25]: 100%
HPLC potency, percentage compared to the initial potency [2, 26]: 91%
HPLC potency, percentage compared to the initial potency [2, 27]: 84%
HPLC potency, percentage compared to the initial potency [2, 28]: 81%
HPLC potency, percentage compared to the initial potency [2, 29]: 75%
HPLC potency, percentage compared to the initial potency [2, 30]: 100%
